Blank lines part the entries; values can stand above or below the compound they belong to.
Molecular target: truncated PI3Kα (p110α/iSH2 p85α) (Homo sapiens (Human), UniProt P42336)
Experiment: PI3KA_Act fluorescence polarization kinase assay (Ki)
Type: biochemical
Conditions: 1 mM ATP
In short: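 p110α/iSH2 p85α (0.5 nM) was reacted with 30 μM sonicated PIP2 in 50 mM HEPES pH 7.4, 150 mM NaCl, 5 mM MgCl2, 1 mM DTT and 0.05% CHAPS for 30 min at room temperature, then stopped with EDTA. PIP3 was detected by fluorescence polarization (GST-Grp1 PH domain/TAMRA-PIP3), and Ki came from a Morrison tight-binding fit.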

Chain of truncated PI3Kα (p110α/iSH2 p85α) (P42336 whole entry, the tested form may be a part): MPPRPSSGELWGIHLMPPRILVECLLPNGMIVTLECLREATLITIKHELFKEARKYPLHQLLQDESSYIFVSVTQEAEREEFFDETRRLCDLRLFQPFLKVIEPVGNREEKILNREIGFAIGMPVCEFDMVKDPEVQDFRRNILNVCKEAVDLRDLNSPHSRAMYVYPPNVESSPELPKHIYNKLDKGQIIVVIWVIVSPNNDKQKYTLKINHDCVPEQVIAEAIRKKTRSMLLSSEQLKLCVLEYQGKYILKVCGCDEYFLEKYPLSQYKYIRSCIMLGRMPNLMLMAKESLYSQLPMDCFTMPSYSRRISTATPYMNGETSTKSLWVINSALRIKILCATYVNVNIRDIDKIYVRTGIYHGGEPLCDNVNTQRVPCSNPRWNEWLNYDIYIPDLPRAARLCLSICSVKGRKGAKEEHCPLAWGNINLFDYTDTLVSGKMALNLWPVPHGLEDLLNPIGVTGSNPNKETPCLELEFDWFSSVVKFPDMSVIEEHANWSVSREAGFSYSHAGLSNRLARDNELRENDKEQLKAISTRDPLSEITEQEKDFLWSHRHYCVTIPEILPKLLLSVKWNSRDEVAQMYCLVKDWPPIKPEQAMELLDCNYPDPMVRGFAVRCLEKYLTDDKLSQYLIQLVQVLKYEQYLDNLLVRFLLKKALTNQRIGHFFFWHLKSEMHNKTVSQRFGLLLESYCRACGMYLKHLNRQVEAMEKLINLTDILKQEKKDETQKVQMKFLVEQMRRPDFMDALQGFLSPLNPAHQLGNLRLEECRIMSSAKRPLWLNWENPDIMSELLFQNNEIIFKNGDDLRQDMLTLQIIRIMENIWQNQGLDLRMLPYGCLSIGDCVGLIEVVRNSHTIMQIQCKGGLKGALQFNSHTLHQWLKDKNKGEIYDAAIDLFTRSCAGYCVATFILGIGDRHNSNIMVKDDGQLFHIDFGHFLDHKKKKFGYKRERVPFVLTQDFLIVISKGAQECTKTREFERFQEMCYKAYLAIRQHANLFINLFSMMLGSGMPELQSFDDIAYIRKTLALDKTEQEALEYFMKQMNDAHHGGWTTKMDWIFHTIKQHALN

SMILES: CC(C)(C(N)=O)N1CC[C@](C)(N2CCc3c(-c4cnc(N)nc4)nc(N4CCOCC4)nc32)C1 [Example 424, 2-{(3S)-3-[4-(2-aminopyrimidin-5-yl)-2-(morpholin-4-yl)-5,6-dihydro-7H-pyrrolo[2,3-d]pyrimidin-7-yl]-3-methylpyrrolidin-1-yl}-2-methylpropanamide]
- PI3KA_Act Ki: 0.321 nM

SMILES: C[C@]1(N2CCc3c(-c4cnc(N)nc4)nc(N4CCOCC4)nc32)CCN(C2CCCC2)C1 [Example 425, 5-{7-[(3S)-1-cyclopentyl-3-methylpyrrolidin-3-yl]-2-(morpholin-4-yl)-6,7-dihydro-5H-pyrrolo[2,3-d]pyrimidin-4-yl}pyrimidin-2-amine]
- PI3KA_Act Ki: 0.311 nM

SMILES: CC1(N2CCc3c(-c4cnc(N)nc4)nc(N4CCOCC4)nc32)CCNCC1.Cl [Example 430, 5-[7-(4-methylpiperidin-4-yl)-2-(morpholin-4-yl)-6,7-dihydro-5H-pyrrolo[2,3-d]pyrimidin-4-yl]pyrimidin-2-amine hydrochloride]
- PI3KA_Act Ki: 0.785 nM

SMILES: CC(C)(C)OC(=O)N1CCC(C)(N2CCc3c(-c4cnc(N)nc4)nc(N4CCOCC4)nc32)CC1 [Example 433, tert-butyl 4-[4-(2-aminopyrimidin-5-yl)-2-(morpholin-4-yl)-5,6-dihydro-7H-pyrrolo[2,3-d]pyrimidin-7-yl]-4-methylpiperidine-1-carboxylate]
- PI3KA_Act Ki: 0.024 nM

SMILES: CS(=O)(=O)N1C[C@H]2C[C@@]2(N2CCc3c(-c4cnc(N)nc4)nc(N4CCOCC4)nc32)C1 [Example 436, 5-{7-[(1S,5R)-3-(methylsulfonyl)-3-azabicyclo[3.1.0]hex-1-yl]-2-(morpholin-4-yl)-6,7-dihydro-5H-pyrrolo[2,3-d]pyrimidin-4-yl}pyrimidin-2-amine]
- PI3KA_Act Ki: 0.189 nM

SMILES: CS(=O)(=O)N1C[C@@H]2C[C@]2(N2CCc3c(-c4cnc(N)nc4)nc(N4CCOCC4)nc32)C1 [Example 437, 5-{7-[(1R,5S)-3-(methylsulfonyl)-3-azabicyclo[3.1.0]hex-1-yl]-2-(morpholin-4-yl)-6,7-dihydro-5H-pyrrolo[2,3-d]pyrimidin-4-yl}pyrimidin-2-amine]
- PI3KA_Act Ki: 0.603 nM

- Ki: 7.45 nM
SMILES: CC(C)(C)OC(=O)N1C[C@@H]2C[C@H]1[C@H]2N1CCc2c(-c3cnc(N)nc3)nc(N3CCOCC3)nc21 [Example 438, tert-butyl (1S,4S,5S)-5-[4-(2-aminopyrimidin-5-yl)-2-(morpholin-4-yl)-5,6-dihydro-7H-pyrrolo[2,3-d]pyrimidin-7-yl]-2-azabicyclo[2.1.1] hexane-2-carboxylate]

SMILES: CS(=O)(=O)N1C[C@@H]2C[C@H]1[C@H]2N1CCc2c(-c3cnc(N)nc3)nc(N3CCOCC3)nc21 [Example 441, 5-{7-[(1S,4S,5S)-2-(methylsulfonyl)-2-azabicyclo[2.1.1]hex-5-yl]-2-(morpholin-4-yl)-6,7-dihydro-5H-pyrrolo[2,3-d]pyrimidin-4-yl}pyrimidin-2-amine]
- Ki: 0.432 nM

SMILES: C[C@H]1COCCN1c1nc(-c2cnc(N)nc2)c2c(n1)N([C@H]1C[C@@H](N)C1)CC2.Cl [Example 442, 5-{7-(cis-3-aminocyclobutyl)-2-[(3S)-3-methylmorpholin-4-yl]-6,7-dihydro-5H-pyrrolo[2,3-d]pyrimidin-4-yl}pyrimidin-2-amine hydrochloride]
- PI3KA_Act Ki: 1.349 nM

SMILES: C[C@H]1COCCN1c1nc(-c2cnc(N)nc2)c2c(n1)N([C@H]1C[C@H](N)C1)CC2.Cl [Example 443, 5-{7-(trans-3-aminocyclobutyl)-2-[(3S)-3-methylmorpholin-4-yl]-6,7-dihydro-5H-pyrrolo[2,3-d]pyrimidin-4-yl}pyrimidin-2-amine hydrochloride]
- PI3KA_Act Ki: 0.944 nM

SMILES: CN[C@H]1C[C@@H](N2CCc3c(-c4cnc(N)nc4)nc(N4CCOC[C@@H]4C)nc32)C1.Cl [Example 444, 5-{7-[cis-3-(methylamino)cyclobutyl]-2-[(3S)-3-methylmorpholin-4-yl]-6,7-dihydro-5H-pyrrolo[2,3-d]pyrimidin-4-yl}pyrimidin-2-amine hydrochloride]
- PI3KA_Act Ki: 2.125 nM

SMILES: CN[C@H]1C[C@H](N2CCc3c(-c4cnc(N)nc4)nc(N4CCOC[C@@H]4C)nc32)C1.Cl [Example 445, 5-{7-[trans-3-(methylamino)cyclobutyl]-2-[(3S)-3-methylmorpholin-4-yl]-6,7-dihydro-5H-pyrrolo[2,3-d]pyrimidin-4-yl}pyrimidin-2-amine hydrochloride]
- PI3KA_Act Ki: 0.993 nM

SMILES: C[C@H]1COCCN1c1nc(-c2cnc(N)nc2)c2c(n1)N([C@H]1C[C@H](NC(=O)OC(C)(C)C)C1)CC2 [Example 446, tert-butyl (trans-3-{4-(2-aminopyrimidin-5-yl)-2-[(3S)-3-methylmorpholin-4-yl]-5,6-dihydro-7H-pyrrolo[2,3-d]pyrimidin-7-yl}cyclobutyl)carbamate]
- PI3KA_Act Ki: 0.433 nM

SMILES: C[C@H]1COCCN1c1nc(-c2cnc(N)nc2)c2c(n1)N([C@H]1C[C@@H](NC(=O)OC(C)(C)C)C1)CC2 [Example 447, tert-butyl (cis-3-{4-(2-aminopyrimidin-5-yl)-2-[(3S)-3-methylmorpholin-4-yl]-5,6-dihydro-7H-pyrrolo[2,3-d]pyrimidin-7-yl}cyclobutyl)carbamate]
- PI3KA_Act Ki: 0.644 nM

SMILES: C[C@H]1COCCN1c1nc(-c2cnc(N)nc2)c2c(n1)N(C1(C)CNC1)CC2.Cl [Example 450, 5-{7-(3-methylazetidin-3-yl)-2-[(3S)-3-methylmorpholin-4-yl]-6,7-dihydro-5H-pyrrolo[2,3-d]pyrimidin-4-yl}pyrimidin-2-amine hydrochloride]
- PI3KA_Act Ki: 0.167 nM

SMILES: CC(=O)N1CC(N2CCc3c(-c4cnc(N)nc4)nc(N4CCOC[C@@H]4C)nc32)C1 [Example 451, 1-(3-{4-(2-aminopyrimidin-5-yl)-2-[(3S)-3-methylmorpholin-4-yl]-5,6-dihydro-7H-pyrrolo[2,3-d]pyrimidin-7-yl}azetidin-1-yl)ethanone]
- PI3KA_Act Ki: 0.595 nM

SMILES: CC(=O)N1CC(C)(N2CCc3c(-c4cnc(N)nc4)nc(N4CCOC[C@@H]4C)nc32)C1 [Example 452, 1-(3-{4-(2-aminopyrimidin-5-yl)-2-[(3S)-3-methylmorpholin-4-yl]-5,6-dihydro-7H-pyrrolo[2,3-d]pyrimidin-7-yl}-3-methylazetidin-1-yl)ethanone]
- PI3KA_Act Ki: 0.090 nM

SMILES: CC(C)C(=O)N1CC(N2CCc3c(-c4cnc(N)nc4)nc(N4CCOC[C@@H]4C)nc32)C1 [Example 453, 1-(3-{4-(2-aminopyrimidin-5-yl)-2-[(3S)-3-methylmorpholin-4-yl]-5,6-dihydro-7H-pyrrolo[2,3-d]pyrimidin-7-yl}azetidin-1-yl)-2-methylpropan-1-one]
- PI3KA_Act Ki: 0.973 nM

SMILES: C[C@H]1COCCN1c1nc(-c2cnc(N)nc2)c2c(n1)N(C1CN(C(=O)C(C)(C)O)C1)CC2 [Example 454, 1-(3-{4-(2-aminopyrimidin-5-yl)-2-[(3S)-3-methylmorpholin-4-yl]-5,6-dihydro-7H-pyrrolo[2,3-d]pyrimidin-7-yl}azetidin-1-yl)-2-hydroxy-2-methylpropan-1-one]
- PI3KA_Act Ki: 0.387 nM

SMILES: C[C@H]1COCCN1c1nc(-c2cnc(N)nc2)c2c(n1)N(C1(C)CN(C(=O)C(C)(C)O)C1)CC2 [Example 455, 1-(3-{4-(2-aminopyrimidin-5-yl)-2-[(3S)-3-methylmorpholin-4-yl]-5,6-dihydro-7H-pyrrolo[2,3-d]pyrimidin-7-yl}-3-methylazetidin-1-yl)-2-hydroxy-2-methylpropan-1-one]
- PI3KA_Act Ki: 0.187 nM

SMILES: C[C@H]1COCCN1c1nc(-c2cnc(N)nc2)c2c(n1)N(C1(C)CN(C(=O)C(C)(C)N)C1)CC2.Cl [Example 456, 2-amino-1-(3-{4-(2-aminopyrimidin-5-yl)-2-[(3S)-3-methylmorpholin-4-yl]-5,6-dihydro-7H-pyrrolo[2,3-d]pyrimidin-7-yl}-3-methylazetidin-1-yl)-2-methylpropan-1-one hydrochloride]
- PI3KA_Act Ki: 0.063 nM

SMILES: CCC(=O)NCC(=O)N1CC(N2CCc3c(-c4cnc(N)nc4)nc(N4CCOC[C@@H]4C)nc32)C1 [Example 457, N-[2-(3-{4-(2-aminopyrimidin-5-yl)-2-[(3S)-3-methylmorpholin-4-yl]-5,6-dihydro-7H-pyrrolo[2,3-d]pyrimidin-7-yl}azetidin-1-yl)-2-oxoethyl]propanamide]
- PI3KA_Act Ki: 0.691 nM

SMILES: C[C@H]1COCCN1c1nc(-c2cnc(N)nc2)c2c(n1)N(C1CN(C(=O)C3(C)CC3)C1)CC2 [Example 458, (3-{4-(2-aminopyrimidin-5-yl)-2-[(3S)-3-methylmorpholin-4-yl]-5,6-dihydro-7H-pyrrolo[2,3-d]pyrimidin-7-yl}azetidin-1-yl)(1-methylcyclopropyl)methanone]
- PI3KA_Act Ki: 0.159 nM

SMILES: C[C@H]1COCCN1c1nc(-c2cnc(N)nc2)c2c(n1)N(C1(C)CN(C(=O)C3(C)CC3)C1)CC2 [Example 459, (3-{4-(2-aminopyrimidin-5-yl)-2-[(3S)-3-methylmorpholin-4-yl]-5,6-dihydro-7H-pyrrolo[2,3-d]pyrimidin-7-yl}-3-methylazetidin-1-yl)(1-methylcyclopropyl)methanone]
- PI3KA_Act Ki: 0.057 nM

SMILES: COC(=O)N1CC(C)(N2CCc3c(-c4cnc(N)nc4)nc(N4CCOC[C@@H]4C)nc32)C1 [Example 460, methyl 3-{4-(2-aminopyrimidin-5-yl)-2-[(3S)-3-methylmorpholin-4-yl]-5,6-dihydro-7H-pyrrolo[2,3-d]pyrimidin-7-yl}-3-methylazetidine-1-carboxylate]
- PI3KA_Act Ki: 0.047 nM

SMILES: C[C@H]1COCCN1c1nc(-c2cnc(N)nc2)c2c(n1)N(C1(C)CN(C(=O)OC(C)(C)C)C1)CC2 [Example 461, tert-butyl 3-{4-(2-aminopyrimidin-5-yl)-2-[(3S)-3-methylmorpholin-4-yl]-5,6-dihydro-7H-pyrrolo[2,3-d]pyrimidin-7-yl}-3-methylazetidine-1-carboxylate]
- PI3KA_Act Ki: 0.040 nM

Reference: patent US9260439B2, “Dihydropyrrolopyrimidine derivatives” (PFIZER INC., priority 2014, dated 2016)
